Measurements: patent US7572600B2, “Enzymatic activities in chemokine-mediated inflammation” (Chemocentryx, Inc., priority 2004, dated 2009)
Where no end group is shown, it is not given here.

Biological target: T1, FPRL1 (Homo sapiens, UniProt P25090)
T1 sequence (P25090 1-351): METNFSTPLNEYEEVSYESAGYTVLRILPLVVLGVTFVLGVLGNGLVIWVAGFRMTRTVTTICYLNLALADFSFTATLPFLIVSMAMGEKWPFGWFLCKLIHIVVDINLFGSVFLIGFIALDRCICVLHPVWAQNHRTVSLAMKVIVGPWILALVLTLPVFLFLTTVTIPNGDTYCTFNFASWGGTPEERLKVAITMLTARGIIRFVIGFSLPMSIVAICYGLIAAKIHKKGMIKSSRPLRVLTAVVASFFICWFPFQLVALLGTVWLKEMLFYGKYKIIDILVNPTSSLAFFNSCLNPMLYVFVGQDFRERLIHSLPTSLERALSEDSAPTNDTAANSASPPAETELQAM
Test: Functional assays on FPRL1 (receptor signaling and chemotaxis)
Assay type: cell-based
Parameters: endogenous in cells; host or cells: human CD14+ monocytes from buffy coats
Method: Receptor signaling assay. For individual measurements, cells were loaded for 45 min at room temperature with 2 μM indo-1/AM (Invitrogen, Carlsbad Calif.) in culture medium, then washed with 10 ml PBS and resuspended at 10^6 cells/ml in HBSS containing 0.1% BSA. Cytosolic calcium levels were determined using a Photon Technology International fluorimeter (excitation at 350 nm, ratio of dual emission at 400 and 490 nm). For measuring calcium dose responses, cells were analyzed with a Fluorometric Imaging Plate Reader 384 (FLIPR^384) (Molecular Devices, Sunnyvale, Calif.). Cells were loaded for 1 hr at 37° C. with 5 μM fluo-4 in HBSS with 0.1% BSA, then washed, transferred to black-wall 96-well plates, and subsequently excited at 505 nm with emission recorded at 530 nm with a standard protocol provided by the manufacture. Cells were stimulated with agonists 20 s after the monitoring of fluorescence began. Data were analyzed and plotted in arbitrary units of fluorescence using Prism. To ensure that responses were specific to FPRL1, we utilized a selective small-molecule antagonist of human FPRL1, generated by ChemoCentryx, which was optimized from a high throughput compound library screening approach.
Chemotaxis assays. L1.2-CCR1 and L1.2-FPRL1 transfectants, monocytes and neutrophils were collected by centrifugation and resuspended in HBSS with 0.1% BSA. The assays were performed in 96-well ChemoTx® microplates (Neuroprobe, Rockville, Md.). Chemokines were diluted in HBSS with 0.1% BSA and added to the lower wells (final volume 29 μL), then 20 μL of cell suspension (5×10^6 cells/mL for monocytes; 2.5×10^6 cells/mL for neutrophils) were added to the polycarbonate filters (5 μm pore size for monocytes and FPRL1 transfectants; 3 μm pore size for neutrophils). After incubation for 90 min (37° C., 100% humidity, 5% CO2), the filters were removed and the cells that migrated into the lower chamber were quantified by using the CyQuant cell proliferation assay kit (Molecular Probes, Oreg.).

fold more potent than all other natural agents posited to act on FPRL1: 50 to 100 fold
EC50 (isolated peptide): 10 to 30 nM
potency and efficacy versus other purported natural FPRL1 ligands (SAA, beta-amyloid protein 42, lipoxin A4, fMLP) (receptor signaling and chemotaxis assays): more potent and efficacious
Sequence: MLWRRKIGPQMTLSHAAG [SHAAGtide]
